One may read the Kd as the concentration at which binding is half-saturated.

We go through two compounds from US6120997A, “Nucleic acid binders having an hydroxyamine motif” (The Scripps Research Institute, priority 1998, dated 2000).

For one assay, the target named is RBE3. The assay is described as follows: SPR binding of aminoglycosides to RBE3. More on the design: species or system HIV-1. Particulars: 25 C; for Kd: pH 7.0, 10 mM HEPES, 150 mM NaCl, 0.1 mM EDTA, Scatchard slope; for Scatchard plot x-axis intercept (RBE3): pH 7.0, 150 mM NaCl. On the procedure:
(§1) FIGS. 9A and 9B illustrate neomycin B binding to RBE3, RBE3-neg and wt-RRE-II. (A) Semilogarithmic plot. […] Conditions: pH 7.0, 10 mM HEPES, 150 mM NaCl, 0.1 mM EDTA, […].
(§2) FIGS. 10A and 10B illustrate paromomycin binding to RBE3, RBE3-neg and wt-RRE-II. (A) Semilogarithmic plot; the dashed line indicates the binding of neomycin B to wt-RRE-II for comparison (B) Scatchard plot. […] Conditions: pH 7.0, 10 mM HEPES, 150 mM NaCl, 0.1 mM EDTA, […].
(§3) Binding of the aminoglycoside to all three RNA oligonucleotides is observed starting in the low nanomolar concentration range and is non-saturable over the concentration range investigated. […] The high degree of non-specific binding is not surprising considering that aminoglycosides are highly charged polycations that tend to associate nonspecifically with the polyanionic phosphate backbone of RNA. […] Data points corresponding to 0.5 or more equivalents of neomycin B represent equilibrium values and can be analyzed with respect to stoichiometry and affinity of aminoglycoside binding. […] Both sequences bind one molecule of neomycin B with submicromolar affinity followed by weaker association with several additional equivalents of the antibiotic.
(§4) Samples were prepared by serial dilutions from stock solutions in RNase free microfuge tubes (Ambion) and were centrifuged at 14000 rpm for degassing. Buffers were filtered through sterile 0.2 &m nylon membranes (Nalgene) under vacuum, except for BIA certified HBS buffer (Pharmacia Biosensor AB) which was used as obtained. All procedures for binding studies were automated as methods using repetitive cycles of sample injection and regeneration. Typically, buffer was injected in the first two cycles to establish a stable baseline value. Samples were injected at a flowrate of 5-10 &L/min using either the KINJECT or the COINJECT command. All aminoglycoside and Rev27 samples were injected from autoclaved 7 mm plastic vials that were capped with pierceable plastic crimp caps. To minimize carry over, samples were injected in order of increasing concentration. The running buffer was identical to the injection buffer, except for the salt dependence study where a single running buffer was used for all injections. Expected values for the equilibrium response of one equivalent of analyte were calculated from the relative molecular weight of the analyte and the immobilized RNA ligand in each flowcells. These values were adjusted by multiplying with a factor of 0.8 or 0.57 for Rev27 or aminoglycosides respectively. These factors arise from the different molar refractive indices of RNA and the analyte and were determined from the Scatchard plot x-axis intercepts of the 1:1 binding isotherms for Rev27 and neomycin B.
(§5) Binding Studies with Aminoglycosides. […]
For orientation: SPR reads the build-up and loss of mass on a sensor chip optically.

For a further assay, the system named is Neo16-bd. The assay is described as follows: SPR binding of aminoglycosides to Neo16-bd aptamer. How it is done:
Conditions: 10 mM HEPES (pH 7.4), 0.1 mM EDTA and NaCl as indicated.
The binding of aminoglycosides to RNA is likely to involve substantial ionic contributions and therefore should be strongly influenced by competing buffer ions. […] We studied the salt dependence of neomycin B binding to RBE3, RBE3-neg and Neo16-bd (FIG. 14) by varying the concentration of NaCl included in the injection buffer (10 mM HEPES, pH 7.4, 0.1 mM EDTA). […] This neomycin binding motif was obtained by in vitro selection under conditions of high ionic strength.
To further improve our understanding of specific aminoglycoside recognition, we have also included an artificial aminoglycoside receptor that was evolved in vitro to recognize an aminoglycoside. A number of RNA aptamers for small molecules have been reported in recent years. Among them are aptamers that recognize the aminoglycosides tobramycin, lividomycin and kanamycin.
For comparison, the corresponding values for AS-wt are also included.
(§6) General Procedures for SPR Binding Studies done in Example 5. Samples were prepared by serial dilutions from stock solutions in RNase free microfuge tubes (Ambion) and were centrifuged at 14000 rpm for degassing. Unless otherwise noted, all binding studies were carried out using HBS buffer (Pharmacia Biosensor AB) which was used as obtained. All procedures for binding studies were automated as methods using repetitive cycles of sample injection and regeneration. Typically, buffer was injected in the first two cycles to establish a stable baseline value. Samples were injected at a flowrate of […] using either the KINJECT command. All aminoglycoside samples were injected from autoclaved 7 mm plastic vials that were capped with pierceable plastic crimp caps. To minimize carry over, samples were injected in order of increasing concentration. The running buffer was identical to the injection buffer.

The next assay has as its system wt-RRE-II. The experiment in a line: SPR binding of aminoglycosides to wt-RRE-II. Particulars: for dissociation from wt-RRE-II after 1 min (in words): aminoglycoside-free buffer, pH 7.4, 150 mM NaCl. Set-up: species or system HIV-1. On the procedure: as §1, §2
FIG. 11 illustrates the kinetic stability of wt-RRE-II complexes with neomycin B vs. paromomycin. […] Data points were taken after 1 min of dissociation.
as §3, §4
Binding Studies with Aminoglycosides.
Neomycin B sulfate (Fluka) was converted to the free base by passing it through Amberlite IRA 400 (OH-- form) and purified by ion exchange chromatography on Dowex 1-X2 100 to remove neomycin C; the purity of neomycin B was verified by NMR in D2 O. Paromomycin sulfate was obtained from Sigma and used as received. Samples were prepared by dilution from 10 mM stock solutions in injection buffer (10 mM HEPES, pH 7.4, 150 mM NaCl, 3.4 mM EDTA). Data points were taken after an association phase of 30 min. A 2 min regeneration pulse of 150 mM Na2 SO4 in injection buffer was used between injections. […]

In a further assay the target is RBE3-neg. The experiment in a line: SPR binding of aminoglycosides to RBE3-neg. Particulars: 25 C; for Kd: pH 7.0, 10 mM HEPES, 150 mM NaCl, 0.1 mM EDTA, Scatchard slope; for Scatchard plot x-axis intercept (RBE3-neg): pH 7.0, 150 mM NaCl. On the procedure:
as §1, §2, §3, §4, §5

In assay [1] the test system is wt-RRE-II, RBE3 and RBE3-neg. The assay is described as follows: SPR binding of aminoglycosides to RRE related RNAs. Set-up: species or system HIV-1. How it is done: Samples were prepared by serial dilutions from stock solutions in RNase free microfuge tubes (Ambion) and were centrifuged at 14000 rpm for degassing. […] All procedures for binding studies were automated as methods using repetitive cycles of sample injection and regeneration. Typically, buffer was injected in the first two cycles to establish a stable baseline value. […] To minimize carry over, samples were injected in order of increasing concentration.
as §6

Structures are written as SMILES. “Also recorded” adds a separate entry of the source. Read-outs that look alike come from different tables or passages of the source. Bounds are passed on as bounds.

In the case of `NC[C@@H]1O[C@H](O[C@H]2[C@@H](O)[C@H](O[C@@H]3[C@@H](O)[C@H](N)C[C@H](N)[C@H]3O[C@H]3O[C@H](CN)[C@@H](O)[C@H](O)[C@H]3N)O[C@@H]2CO)[C@H](N)[C@@H](O)[C@@H]1O` [Neomycin B], the dissociation constant Kd on RBE3 (read-out: Kd (RBE3), neomycin B) is 210 nM; at Neo16-bd (HBS buffer + 150 mM NH4Cl, read-out: Kd, Neo16bd, high salt), less than 10 nM; at RBE3-neg (read-out: Kd (RBE3-neg), neomycin B), 160 nM. In the assay with RBE3, the “Scatchard plot x-axis intercept (RBE3)” value came out at 1.01. Further, the “selectivity for binding Neo16-bd vs. RBE3 or RBE3-neg” value in the assay with Neo16-bd (250 mM NaCl, 10 mM HEPES, pH 7.4, 0.1 mM EDTA) is reported as “approximately 100 fold”. Besides, the “specificity of Neo16bd relative to RBE3” value in the assay with Neo16-bd (HBS buffer + 150 mM NH4Cl) was “greater than 300 fold”. Besides, in the assay with wt-RRE-II (SPR), the “number of molecules/sites bound with submicromolar affinity (wt-RRE-II)” value is on record as “three different sites, each with a submicromolar dissociation constant; also recorded: three molecules of neomycin B are bound with submicromolar affinity; also recorded: up to three molecules”. Further, the “dissociation from wt-RRE-II after 1 min (in words)” value with wt-RRE-II is recorded as “apparent 1:1 binding isotherm”. For the same compound, the “relative binding affinity for wt-RRE-II (in words)” value in the assay with wt-RRE-II (comparison of aminoglycosides) is “highest affinity”. For the same compound, the “Scatchard plot x-axis intercept (RBE3-neg)” value in the assay on RBE3-neg was found to be 0.98. In addition, in assay [1], the “discrimination between the three RRE related sequences (in words)” value is on record as “no discrimination”. Besides, the “weaker binding to the three RRE related RNAs than to AS-wt” value in assay [1] is 12 fold.

With `NC[C@@H]1O[C@H](O[C@H]2[C@@H](O)[C@H](O[C@@H]3[C@@H](O)[C@H](N)C[C@H](N)[C@H]3O[C@H]3O[C@H](CO)[C@@H](O)[C@H](O)[C@H]3N)O[C@@H]2CO)[C@H](N)[C@@H](O)[C@@H]1O` [Paromomycin], the Kd on RBE3 (read-out: Kd (RBE3), paromomycin) is 2800 nM; on RBE3-neg (read-out: Kd (RBE3-neg), paromomycin), 3100 nM. The “Scatchard plot x-axis intercept (RBE3)” value in the assay on RBE3 is on record as 1.04. Moreover, the “discrimination between paromomycin and neomycin derivatives of the same charge, Neo16bd” value in the assay with Neo16-bd is recorded as “greater than 20 fold”. Also, the “dissociation from wt-RRE-II after 1 min (in words)” value with wt-RRE-II is “No apparent 1:1 binding isotherm is discernible”. In addition, the “Scatchard plot x-axis intercept (RBE3-neg)” value in the assay on RBE3-neg is on record as 1.05. In addition, the “lower affinity compared to neomycin B” value in assay [1] (wt-RRE-II, RBE3 and RBE3-neg, equilibrium binding) is “approximately 15 fold”.
